According to US20230132526A1 (Institute of Materia Medica, Chinese Academy of Medical …, priority 2020, published 2023):

How the values were obtained:
[1] = test system: phosphorylated Akt; test: Level of phosphorylated Akt by western blotting in primary mouse hepatocytes treated with EphB4 inhibitor; assay type: cell-based; settings: LCA 10 μM and 20 μM overnight, 10 nM insulin 20 min before collection, western blotting (FIG. 2C)
Experimental: After the liver tissue was fully digested, it was suspended with DMEM medium, flew through a cell sieve with a diameter of 70 μm, and was centrifugated, thereby the primary hepatocytes were obtained. The cells were resuspended in complete culture medium and dispersed into a petri dish or plate. After the cells were attached, they were treated with LCA (10 μM and 20 μM) overnight.

[2] = test system: flag-InsR; test: Protein level of flag-InsR by Western blotting in HEK293T cells co-expressing insulin receptor and EphB4, treated with degradation pathway inhibitors; assay type: cell-based; settings: HEK293T cells co-expressing flag-InsR and EphB4-HA; ammonium chloride 5 mM, chloroquine 10 μM, 8 h; Western blotting (FIG. 2B)
Experimental: GFP was co-transfected as a reference for foreign proteins. The cells were treated with proteasome degradation pathway inhibitor MG132 (10 μM), lysosome degradation pathway inhibitor ammonium chloride (5 mM) and chloroquine (10 μM) for 8 h.

C[C@H](CCC(=O)O)[C@H]1CC[C@H]2[C@@H]3CC[C@@H]4C[C@H](O)CC[C@]4(C)[C@H]3CC[C@]12C [LCA, 3α-hydroxy-5β-cholanoic acid]
level of phosphorylated Akt [1]: increase the level of phosphorylated Akt

Cl.N [ammonium chloride, Ammonium chloride]
protein level of flag-InsR (effect on EphB4-promoted insulin receptor degradation) [2]: partially rescue the promoting effect of EphB4 on insulin receptor degradation to some extent

CCN(CC)CCCC(C)Nc1ccnc2cc(Cl)ccc12 (stereo not drawn) [chloroquine]
protein level of flag-InsR (effect on EphB4-promoted insulin receptor degradation) [2]: partially rescue the promoting effect of EphB4 on insulin receptor degradation to some extent
